Calls of active or inactive are those of the source. No cut-off for these calls is given here.
Key:
Rattus norvegicus [1] = experiment: Antithrombotic activity in […]-induced venous thrombosis rat model assessed as reduction in thrombus weight at 2 mg/kg (reference value: 9.7 +/- 1.62 mg); assay type: functional
Rattus norvegicus [2] = experiment: Antithrombotic activity in […]-induced venous thrombosis rat model assessed as thrombus inhibition rate at 0.5 mg/kg relative to control; assay type: functional
Oryctolagus cuniculus [3] = organism: Oryctolagus cuniculus; experiment: Anticoagulant activity in rabbit plasma assessed as increase in prothrombin time at 20 to 62500 nM; assay type: functional; conditions: dose 20-62500 nM
Rattus norvegicus [4] = experiment: Antithrombotic activity in […]-induced venous thrombosis rat model assessed as thrombus inhibition rate at 1 mg/kg relative to control; assay type: functional
Rattus norvegicus [5] = experiment: Antithrombotic activity in […]-induced venous thrombosis rat model assessed as reduction in thrombus weight at 0.5 mg/kg (reference value: 9.7 +/- 1.62 mg); assay type: functional
Rattus norvegicus [6] = experiment: Antithrombotic activity in FlC3-induced venous thrombosis rat model assessed as reduction in thrombus weight at 1 mg/kg (reference value: 9.7 +/- 1.62 mg); assay type: functional
Coagulation factor X [7] = molecular target: T1, Coagulation factor X (Homo sapiens, UniProt P00742); experiment: Inhibition of factor Xa (unknown origin)
T1 sequence (P00742 41-179 limits assumed): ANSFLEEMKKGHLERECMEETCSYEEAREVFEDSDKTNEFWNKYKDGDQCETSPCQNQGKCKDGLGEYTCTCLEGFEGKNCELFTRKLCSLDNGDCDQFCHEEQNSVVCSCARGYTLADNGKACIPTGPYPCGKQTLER
T1 sequence (P00742 235-488 limits assumed): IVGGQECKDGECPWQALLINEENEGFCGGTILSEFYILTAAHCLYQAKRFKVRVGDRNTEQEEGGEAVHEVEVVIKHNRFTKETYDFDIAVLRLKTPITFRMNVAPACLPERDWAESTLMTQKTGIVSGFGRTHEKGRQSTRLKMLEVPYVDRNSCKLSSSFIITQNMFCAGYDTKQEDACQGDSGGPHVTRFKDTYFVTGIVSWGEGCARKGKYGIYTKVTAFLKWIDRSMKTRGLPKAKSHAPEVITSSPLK

Rattus norvegicus [8] = experiment: Antithrombotic activity in […]-induced venous thrombosis rat model assessed as reduction in thrombus weight at 1 mg/kg (reference value: 7.79 +/- 1.62 mg); assay type: functional
Coagulation factor X [9] = molecular target: T1, Coagulation factor X; experiment: Inhibition of factor Xa (unknown origin) assessed as residual enzymatic activity at 20 nM
Coagulation factor X [10] = molecular target: T1, Coagulation factor X; experiment: Potency index, ratio of rivaroxaban IC50 to test compound IC50 for inhibition of factor Xa (unknown origin)
Oryctolagus cuniculus [11] = organism: Oryctolagus cuniculus; experiment: Anticoagulant activity in rabbit plasma assessed as T/C ratio of prothrombin time (reference value: 1); assay type: functional
Rattus norvegicus [12] = experiment: Antithrombotic activity in […]-induced venous thrombosis rat model assessed as thrombus inhibition rate at 2 mg/kg relative to control; assay type: functional

SMILES	IC50 (Coagulation factor X [7])	Activity (Coagulation factor X [9])	Ratio IC50 (Coagulation factor X [10])	Activity (Rattus norvegicus [1])	inhibition in vivo at 0.5 mg/kg (Rattus norvegicus [2])	Activity (Oryctolagus cuniculus [3])	inhibition in vivo at 1 mg/kg (Rattus norvegicus [4])	Activity (Rattus norvegicus [5])	Activity (Rattus norvegicus [6])	Activity (Rattus norvegicus [8])	T/C (Oryctolagus cuniculus [11])	inhibition in vivo at 2 mg/kg (Rattus norvegicus [12])
COc1ccc(-n2nc(C(N)=O)c3c2C(=O)N(c2ccc(N4CCCCC4=O)cc2)CC3)cc1 [APIXABAN]	–	–	–	–	66%	–	58%	3.33 mg	–	3.24 mg	–	–
O=C(NC[C@H]1CN(c2ccc(N3CCOCC3=O)cc2)C(=O)O1)c1ccc(Cl)s1 [RIVAROXABAN]	–	45.8%	–	–	–	–	75%	–	2.41 mg	–	2.03	–
COc1ccc(-n2cc(C#N)c3ncn(-c4ccc(N5CCC[C@H]5C(N)=O)cc4)c(=O)c32)cc1	3.69 nM	45.8%	4	–	–	–	53%	–	–	3.65 mg	1.67	–

Second part, led by results:

IC50 (Coagulation factor X [7])	Activity (Coagulation factor X [9])	Ratio IC50 (Coagulation factor X [10])	SMILES	Activity (Rattus norvegicus [1])	inhibition in vivo at 0.5 mg/kg (Rattus norvegicus [2])	Activity (Oryctolagus cuniculus [3])	inhibition in vivo at 1 mg/kg (Rattus norvegicus [4])	Activity (Rattus norvegicus [5])	Activity (Rattus norvegicus [6])	Activity (Rattus norvegicus [8])	T/C (Oryctolagus cuniculus [11])	inhibition in vivo at 2 mg/kg (Rattus norvegicus [12])
1.57 nM	46.7%	9	COc1ccc(-n2cc(C(N)=O)c3ncn(-c4ccc(N5CCOCC5=O)cc4)c(=O)c32)cc1	2.6 mg	45%	Active	65%	5.36 mg	3.05 mg	2.73 mg	1.99	73%
–	59.8%	–	COc1ccc(-n2cc(C#N)c3ncn(-c4ccc(N5CCOCC5=O)cc4)c(=O)c32)cc1	–	–	Active	–	–	–	–	1.88	–

Reference: ChEMBL document CHEMBL5236667, “Synthesis of pyrrolo[3,2-d]pyrimidineone derivatives as novel FXa inhibitors” (Bioorg Med Chem Lett, 2023)
